{"source": "patent US20060194815A1", "about": "“Methods and compositions for modulating serum cortisol levels” (priority 2003, published 2006)", "key": {"[1]": {"tested_on": "Y1 mouse adrenal tumor cells", "test": "dbcAMP-induced 20á-hydroxyprogesterone synthesis in Y1 cells (RIA)", "assay_type": "cell-based", "procedure": "(§1) Culture media were then changed and cells were stimulated with 1 mM dbcAMP and the treatment for 24 to 48 hours. […] The synthesis of 20-OH progesterone and progesterone in Y1 and MA-10 cell media respectively were measured by RIA (Brown et al., 1992). H295R human adrenal tumor cells were seeded in 48-well plates at 10^5 cells/well and incubated for 24 hours. […] At the end of the incubation time period, cells were treated with 1 mM dbcAMP for 48 hours. Cortisol levels in the media were determined by radioimmunoassay as previously described (Amri et al., 1996)."}, "HMG-CoA reductase mRNA [2]": {"tested_on": "HMG-CoA reductase mRNA", "test": "HMG-CoA reductase mRNA expression by Q-PCR in Y1 cells", "assay_type": "cell-based, mouse", "settings": "for dbcAMP-induced HMG-CoA reductase mRNA levels: Y1 cells, 24 hours pretreatment, dbcAMP 24 hours", "procedure": "(§2) After treatment, cells were stimulated with 1 mM dbcAMP for 24 hours. At the end of the incubation, total cell RNA was extracted using. RNA STAT-60 (Tel-Test Inc, Friendswood, Tex.) according to the manufacturer's instructions. HMG-CoA reductase mRNA was quantified by Q-PCR using the ABI Prism 7700 sequence detection system (Perlin-Elmer/Applied Biosystems, Foster City, Calif.). RT reaction was performed using TaqMan® Reverse Transcription Reagents with 1 g total RNA and random hexamers as primers for each reaction according to the manufacturer's instructions. For quantifying mouse HMG-CoA reductase mRNA with Q-PCR, the primers were designed according to GenBank Accession Number BC 019782 using PE/AB Primer Express software, which is specifically designed for the selection of primers and probes. The forward primer was 5′-[…]-3′ (22 nucleotides) and reverse primer was 5′-[…]-3′ (23 nucleotides), respectively. The primers were synthesized by Bio-Synthesis Inc. (Lewisville, Tex.). Reactions were performed in a reaction mixture consisting of a 20 l volume solution containing 10 l SYBR® Green PCR Master Mix and 1 l primers mix (5 M each) with 2 l cDNA."}, "P-450SCC enzyme": {"tested_on": "P-450SCC enzyme", "test": "Immunoblot of P-450SCC enzyme expression in Y1 cells", "assay_type": "cell-based, mouse", "settings": "Y1 cell extracts", "procedure": "At the end of the treatment protocol described above, Y1 cells at 90% confluency were washed 2 times with PBS, sonicated 15 seconds in extraction buffer and centrifuged at 18,500 g for 15 minutes at 4° C. Pellets were resuspended in ice-cold lysis buffer (1% Nonidet 40 in extraction buffer), sonicated briefly, and incubated on ice for 1 hour. After centrifugation (22,500 g×30 min, 4° C.), the supernatant was mixed in sample buffer 6× (0.27 M SDS, 0.6 M dithiothreitol, 0.18 M bromphenol blue in 7 ml of 0.5 M Tris-HCl, pH 6.8, and 3 ml glycerol) and boiled for 5 minutes. Proteins were subjected to SDS-PAGE (4-20% gradient SDS polyacrylamide gel) and electrophoretically transferred onto nitrocellulose membranes. The transblot sheets were blocked with 5% non fat dry milk in 25 mM Tris HCl, pH 7.5, 150 mM NaCl, and 0.1% Tween 20 overnight at 4° C. Membranes were then incubated with appropriately diluted primary antibodies 1:800 for anti-P-450SCC (Research Diagnostics Inc. Flanders, N.J.) and 1:200 for anti-StAR (Amri et al., 1996), and the reaction was detected by a peroxidase-conjugated secondary antibody (Santa Cruz Biotechnology, Santa Cruz, Calif.) and enhanced chemiluminescence (Amersham Life, Arlington Heights, Ill.). The densities of the appropriate bands were determined using the OptiQuant Acquisition & Analysis software (Packard BioScience)."}, "PKA": {"tested_on": "PKA", "test": "dbcAMP-stimulated PKA activity in Y1 cells (PepTag assay)", "assay_type": "cell-based, mouse", "set-up": "dose or concentration left out as unconfirmed", "procedure": "Y1 cells were cultured in 6-well plates (2×10^5 cells per well) and treated as described above for steroid biosynthesis. At the end of the incubation, cells were washed twice with PBS and proteins were extracted using an extraction buffer (25 mM tris-HCl pH 7.4, 0.5 mM EDTA, 0.5 mM EGTA, 10 mM-mercaptoethanol, 0.5 mM PMSF, 1 g/ml leupeptin, and 1 g/ml aprotinin). After centrifugation at 18,500 g for 15 minutes, the supernatants were kept for PKA activity assay. Samples were processed using the PepTag assay for non-radioactive detection of PKA activity following the manufacturer's recommendations (Promega Corporation, Madison, Wis.)."}, "[3]": {"tested_on": "MA-10 mouse Leydig tumor cells", "test": "MTT cell viability, MA-10 cells", "assay_type": "cell-based", "procedure": "Cell viability at the end of the incubation protocol described above was assessed using the mitochondrial integrity 3-(4,5-dimethylthiazol-2-yl)-2,5-diphenyl tetrazolium bromide (MTT) assay (Trevigen, Gaithersburg, Md.). Briefly, 10 l of the MTT solution were added to the cells in 100 l medium. After an incubation period of 4 hours, 100 l of detergent were added and cells were incubated overnight at 37° C. Formazan blue formation was quantified at 600 nm and 690 nm using the Victor quantitative detection spectrophotometer (EGG-Wallac, Gaithersburg, Md.) and the results expressed as (OD600-OD690)."}, "[4]": {"tested_on": "H295R human adrenal tumor cells", "test": "dbcAMP-induced cortisol synthesis in H295R cells (RIA)", "assay_type": "cell-based", "procedure": "as §1"}, "HMG-CoA reductase mRNA [5]": {"tested_on": "HMG-CoA reductase mRNA", "test": "HMG-CoA reductase mRNA expression by Q-PCR in Hepa1-6 cells", "assay_type": "cell-based", "settings": "Hepa1-6 mouse liver hepatoma cells", "procedure": "as §2"}, "HMG-CoA reductase": {"tested_on": "HMG-CoA reductase", "test": "HMG-CoA reductase activity in treated Y1 cells", "assay_type": "cell-based, mouse", "settings": "increasing concentrations", "procedure": "Cells were washed twice with ice-cold PBS and incubated with ice-cold assay buffer (0.1M sucrose, 40 mM KH2PO4, 30 mM EDTA, 50 mM KCl, 5 mM DTT, 0.25% (v/v) of Brij 96, at pH 7.4) on ice for 20 minutes. After centrifugation for 3 minutes at 14000 g (4° C.) the supernatants were collected and used for HMG-CoA reductase activity assay. The total 150 l assay mixture contained 100-200 g protein and the NADPH-generating system (2.5 mM NADP, 20 mM glucose 6-phosphate and 20 U/ml glucose 6-phosphate dehydrogenase). The reaction was started by adding substrate (^14C-HMG-CoA, 0.1 Ci) and stopped after 45 minutes by adding 10-1 of HCl 6M. ^3H-mevalonolactone was also added to the samples as an extraction recovery marker. After an additional 30 minutes incubation time, to allow complete lactonization of the product, the mixture was centrifuged. The supernatant was applied to Bond-Elut NH2 column and eluted with 1 ml of toluene/acetone (3:1). The eluate was discarded and further 4 ml of toluene/acetone was applied to the column and collected in a scintillation vial for counting ^14C-mevalonate and 3H-mevalonolactone signals (Berkhout et al., 1990)."}, "[6]": {"tested_on": "MA-10 mouse Leydig tumor cells", "test": "dbcAMP-induced progesterone synthesis in MA-10 cells (RIA)", "assay_type": "cell-based", "procedure": "as §1"}}, "note": "“Also recorded” adds a separate entry of the source.", "data": [{"smiles": "CCN(CC)CCOC(=O)c1ccc(N)cc1", "note": "[procaine]", "values": [{"measurement": "dbcAMP-induced 20á-hydroxyprogesterone production", "setting": "[1]; Y1 cells, 1 mM dbcAMP, increasing concentrations", "value": "decreased in a dose-dependent manner"}, {"measurement": "basal steroid formation by Y1 cells", "setting": "[1]; no dbcAMP stimulus", "value": "without affecting"}, {"measurement": "dbcAMP-induced HMG-CoA reductase mRNA levels", "setting": "HMG-CoA reductase mRNA [2]", "value": "reduced in a dose-dependent manner"}, {"measurement": "dbcAMP-induced HMG-CoA reductase mRNA levels", "setting": "HMG-CoA reductase mRNA [2]; listed as Procaine", "value": "inhibited in a dose-dependent manner"}, {"measurement": "basal HMG-CoA mRNA levels", "setting": "HMG-CoA reductase mRNA [2]; no dbcAMP", "value": "without affecting"}, {"measurement": "expression of the P-450SCC enzyme (immunoblot)", "setting": "P-450SCC enzyme", "value": "did not modify"}, {"measurement": "dbcAMP-stimulated PKA activity", "setting": "PKA", "value": "did not affect"}, {"measurement": "cell viability (MTT assay)", "setting": "[3]", "value": "did not affect"}, {"measurement": "dbcAMP-stimulated cortisol production", "setting": "[4]; H295R cells, 1 mM dbcAMP", "value": "inhibited the dbcAMP-stimulated cortisol production in a dose-dependent manner"}, {"measurement": "basal cortisol production", "setting": "[4]; H295R cells, no dbcAMP", "value": "without effecting basal cortisol production"}, {"measurement": "sensitivity of human adrenal tumor cells versus mouse adrenal cells", "setting": "[4]; H295R versus Y1", "value": "less sensitive"}, {"measurement": "dbcAMP-induced HMG-CoA reductase mRNA levels", "setting": "HMG-CoA reductase mRNA [5]", "value": "inhibited; also recorded: robust"}, {"measurement": "HMG-CoA reductase activity in treated cells", "setting": "HMG-CoA reductase", "value": "reduced in a dose-dependent manner"}, {"measurement": "dbcAMP-induced progesterone synthesis", "setting": "[6]", "value": "did not affect"}]}]}
